ChEMBL document CHEMBL3046898, “Synthesis and characterization of flurbiprofen hydrazide derivatives as potential anti-HCV, anticancer and antimicrobial agents” (2013)
Activity calls are given as the source filed them. The calls are words filed in the database; no cut-off is given here.

Key:
Micrococcus lylae [1] = assay: Antibacterial activity against Micrococcus lylae at 6.25 to 200 ug/ml after 24 hrs by microwell dilution method; type: functional, organism-based
Pseudomonas aeruginosa [2] = assay: Antibacterial activity against Pseudomonas aeruginosa at 6.25 to 200 ug/ml after 24 hrs by microwell dilution method; type: functional, organism-based
Proteus vulgaris [3] = assay: Antibacterial activity against Proteus vulgaris at 6.25 to 200 ug/ml after 24 hrs by microwell dilution method; type: functional, organism-based
Escherichia coli [4] = assay: Antibacterial activity against Escherichia coli at 6.25 to 200 ug/ml after 24 hrs by microwell dilution method; type: functional, organism-based
Staphylococcus cohnii [5] = assay: Antibacterial activity against Staphylococcus cohnii at 6.25 to 200 ug/ml after 24 hrs by microwell dilution assay; type: functional, organism-based
Staphylococcus aureus [6] = assay: Antibacterial activity against Staphylococcus aureus at 6.25 to 200 ug/ml after 24 hrs by microwell dilution assay; type: functional, organism-based
Micrococcus luteus [7] = assay: Antibacterial activity against Micrococcus luteus at 6.25 to 200 ug/ml after 24 hrs by microwell dilution method; type: functional, organism-based
Aspergillus = assay: Antifungal activity against Aspergillus at 10 mg/ml after 72 hrs by disc diffusion method; type: functional, organism-based
Pichia membranifaciens = assay: Antifungal activity against Pichia membranifaciens at 10 mg/ml after 48 hrs by disc diffusion method; type: functional, organism-based
Kluyveromyces marxianus = assay: Antifungal activity against Kluyveromyces marxianus at 10 mg/ml after 48 hrs by disc diffusion method; type: functional, organism-based
[8] = tested on: Schwanniomyces occidentalis; assay: Antifungal activity against Schwanniomyces occidentalis at 10 mg/ml after 48 hrs by disc diffusion method; type: functional, organism-based
Nakaseomyces glabratus = assay: Antifungal activity against Candida glabrata at 10 mg/ml after 48 hrs by disc diffusion method; type: functional, organism-based
Candida parapsilosis = assay: Antifungal activity against Candida parapsilosis at 10 mg/ml after 48 hrs by disc diffusion method; type: functional, organism-based
Candida tropicalis = assay: Antifungal activity against Candida tropicalis at 10 mg/ml after 48 hrs by disc diffusion method; type: functional, organism-based
Candida albicans = assay: Antifungal activity against Candida albicans at 10 mg/ml after 48 hrs by disc diffusion method; type: functional, organism-based
Photorhabdus luminescens [9] = assay: Antibacterial activity against Photorhabdus luminescens at 10 mg/ml after 24 hrs by disc diffusion method; type: functional, organism-based
Klebsiella aerogenes [10] = assay: Antibacterial activity against Enterobacter aerogenes at 6.25 to 200 ug/ml after 24 hrs by microwell dilution method; type: functional, organism-based
Photorhabdus luminescens [11] = assay: Antibacterial activity against Photorhabdus luminescens at 6.25 to 200 ug/ml after 24 hrs by microwell dilution method; type: functional, organism-based
[12] = tested on: Acinetobacter radioresistens; assay: Antibacterial activity against Acinetobacter radioresistens at 6.25 to 200 ug/ml after 24 hrs by microwell dilution method; type: functional, organism-based
Salmonella paratyphi [13] = assay: Antibacterial activity against Salmonella paratyphi at 6.25 to 200 ug/ml after 24 hrs by microwell dilution method; type: functional, organism-based; details: Salmonella enterica subsp. enterica serovar Paratyphi A
Klebsiella aerogenes [14] = assay: Antibacterial activity against Enterobacter aerogenes at 10 mg/ml after 24 hrs by disc diffusion method; type: functional, organism-based
[15] = tested on: Acinetobacter radioresistens; assay: Antibacterial activity against Acinetobacter radioresistens at 10 mg/ml after 24 hrs by disc diffusion method; type: functional, organism-based
Salmonella paratyphi [16] = assay: Antibacterial activity against Salmonella paratyphi at 10 mg/ml after 24 hrs by disc diffusion method; type: functional, organism-based; details: Salmonella enterica subsp. enterica serovar Paratyphi A
Micrococcus lylae [17] = assay: Antibacterial activity against Micrococcus lylae at 10 mg/ml after 24 hrs by disc diffusion method; type: functional, organism-based
Pseudomonas aeruginosa [18] = assay: Antibacterial activity against Pseudomonas aeruginosa at 10 mg/ml after 24 hrs by disc diffusion method; type: functional, organism-based
Escherichia coli [19] = assay: Antibacterial activity against Escherichia coli at 10 mg/ml after 24 hrs by disc diffusion method; type: functional, organism-based
Proteus vulgaris [20] = assay: Antibacterial activity against Proteus vulgaris at 10 mg/ml after 24 hrs by disc diffusion method; type: functional, organism-based
Micrococcus luteus [21] = assay: Antibacterial activity against Micrococcus luteus at 10 mg/ml after 24 hrs by disc diffusion method; type: functional, organism-based
Staphylococcus aureus [22] = assay: Antibacterial activity against Staphylococcus aureus at 10 mg/ml after 24 hrs by disc diffusion method; type: functional
Staphylococcus cohnii [23] = assay: Antibacterial activity against Staphylococcus cohnii at 10 mg/ml after 24 hrs by disc diffusion method; type: functional
Hepacivirus hominis = assay: Inhibition of HCV N-terminal His-tagged NS5B RNA dependent RNA polymerase expressed in Escherichia coli DH5alpha using poly rA/U12 as primer at 200 uM after 60 mins by liquid scintillation counting

Row | SMILES | Activity (Micrococcus lylae [1]) | Activity (Pseudomonas aeruginosa [2]) | Activity (Proteus vulgaris [3]) | Activity (Escherichia coli [4]) | Activity (Staphylococcus cohnii [5]) | Activity (Staphylococcus aureus [6]) | Activity (Micrococcus luteus [7]) | Activity (Aspergillus) | Activity (Pichia membranifaciens) | Activity (Kluyveromyces marxianus) | Activity [8] | Activity (Nakaseomyces glabratus) | Activity (Candida parapsilosis) | Activity (Candida tropicalis) | Activity (Candida albicans) | Activity (Photorhabdus luminescens [9]) | Activity (Klebsiella aerogenes [10]) | Activity (Photorhabdus luminescens [11]) | Activity [12] | Activity (Salmonella paratyphi [13]) | other results
1 | CC(C(=O)NN1C(=O)CSC1c1c(F)cccc1F)c1ccc(-c2ccccc2)c(F)c1 (centres undefined) | inactive | inactive | inactive | inactive | inactive | inactive | inactive | inactive | inactive | inactive | inactive | inactive | inactive | inactive | inactive | inactive | inactive | inactive | inactive | inactive | Activity (Klebsiella aerogenes [14]): inactive; Activity [15]: inactive; Activity (Salmonella paratyphi [16]): inactive; Activity (Micrococcus lylae [17]): inactive; Activity (Pseudomonas aeruginosa [18]): inactive; Activity (Escherichia coli [19]): inactive; Activity (Proteus vulgaris [20]): inactive; Activity (Micrococcus luteus [21]): inactive; Activity (Staphylococcus aureus [22]): inactive; Activity (Staphylococcus cohnii [23]): inactive; inhibition (Hepacivirus hominis): 8%
2 | CC(C(=O)NN1C(=O)CSC1c1ccc(F)cc1)c1ccc(-c2ccccc2)c(F)c1 (centres undefined) | inactive | inactive | inactive | inactive | inactive | inactive | inactive | inactive | inactive | inactive | inactive | inactive | inactive | inactive | inactive | inactive | inactive | inactive | inactive | inactive | Activity (Klebsiella aerogenes [14]): inactive; Activity [15]: inactive; Activity (Salmonella paratyphi [16]): inactive; Activity (Micrococcus lylae [17]): inactive; Activity (Pseudomonas aeruginosa [18]): inactive; Activity (Escherichia coli [19]): inactive; Activity (Proteus vulgaris [20]): inactive; Activity (Micrococcus luteus [21]): inactive; Activity (Staphylococcus aureus [22]): inactive; Activity (Staphylococcus cohnii [23]): inactive; inhibition (Hepacivirus hominis): 8%
3 | CNC(=S)NNC(=O)C(C)c1ccc(-c2ccccc2)c(F)c1 (centres undefined) | inactive | inactive | inactive | inactive | inactive | inactive | inactive | inactive | inactive | inactive | inactive | inactive | inactive | inactive | inactive | inactive | inactive | inactive | inactive | inactive | Activity (Klebsiella aerogenes [14]): inactive; Activity [15]: inactive; Activity (Salmonella paratyphi [16]): inactive; Activity (Micrococcus lylae [17]): inactive; Activity (Pseudomonas aeruginosa [18]): inactive; Activity (Escherichia coli [19]): inactive; Activity (Proteus vulgaris [20]): inactive; Activity (Micrococcus luteus [21]): inactive; Activity (Staphylococcus aureus [22]): inactive; Activity (Staphylococcus cohnii [23]): inactive; inhibition (Hepacivirus hominis): 8%
4 | CC(C(=O)N/N=C/c1ccc(Cl)cc1)c1ccc(-c2ccccc2)c(F)c1 (centres undefined) | inactive | inactive | inactive | inactive | inactive | inactive | inactive | inactive | inactive | inactive | inactive | inactive | inactive | inactive | inactive | inactive | inactive | inactive | inactive | inactive | Activity (Klebsiella aerogenes [14]): inactive; Activity [15]: inactive; Activity (Salmonella paratyphi [16]): inactive; Activity (Micrococcus lylae [17]): inactive; Activity (Pseudomonas aeruginosa [18]): inactive; Activity (Escherichia coli [19]): inactive; Activity (Proteus vulgaris [20]): inactive; Activity (Micrococcus luteus [21]): inactive; Activity (Staphylococcus aureus [22]): inactive; Activity (Staphylococcus cohnii [23]): inactive; inhibition (Hepacivirus hominis): 8%
